# What was measured:
# [1] = system: patients with schizophrenia; experiment: Estimated correlation between CBD plasma concentration and percentage change of PANSS score at day 14; format: in vivo; conditions: for Estimated CBD plasma concentration, PANSS_N, average / Estimated CBD plasma concentration, PANSS_P, average / Estimated CBD plasma concentration, PANSS_T, average / Estimated CBD plasma concentration, PANSS_G, average: two weeks after commencement
# From the text: In general, it is expected that a percentage change of 50% of the PANSS score(s) vis-à-vis the baseline score after four to six weeks of treatment indicates a significant improvement of the PANSS score(s) (see Correll C. U., “Quantifying clinical relevance in the treatment of schizophrenia, Clinical Therapeutics”, Vol. 33, Number 12, 2011, B16-B39).
# Since the PANSS score(s) cover symptoms experienced or observed during the preceding 7 days, the minimum required observation period is one week. To avoid an overlap to the observation of initial symptoms, a treatment period of 2 weeks is considered a minimum reliable period. Therefore, we analyzed the treatment effect after 2 weeks of treatment. Due to the analyzed shortened treatment period a percentage change of 25% of the PANSS score(s) vis-à-vis the baseline score indicates a significant improvement of the PANSS score(s).
# [2] = system: patients with schizophrenia; experiment: PANSS assessment in clinical trials CBD-CT1 and CBD-PT; format: in vivo; conditions: for PANSS Positive Score: baseline 22.9 ± 4.3; for PANSS Negative Score: baseline 22.5 ± 6.0; for PANSS General Score: baseline 45.0 ± 8.2; for PANSS Total Score: baseline 90.4 ± 14.1
# From the text: The Ethics Committee of the Faculty of Medicine of University of Cologne approved the clinical trial with application number 00-074 on Aug. 6, 2000.
# All randomized patients complied with all inclusion and exclusion criteria: age between 18 and 50, male and female, persisting inpatient hospitalization, specific DSM-IV diagnoses, initial Brief Psychiatric Rating Scale (BPRS) score≥36, understanding of the study objectives and the course of the study, legal capacity, no pregnancy or lactation phase, reliable contraception.
# CBD was administered as an oral dose in a capsule formulation. The dose was increased during the first week from 200 mg/d to 800 mg/d (4×200 mg) and remained at this level for the rest of the study period. Due to serious unwanted effects, the dose could be reduced irreversibly to 600 mg/d starting with day 15. […] Dose applications, blood sampling, and assessment of PANSS followed the time schedule presented below. Additional treatment with 7.5 mg lorazepam per day during the whole study period was permitted.
# On 28 Jul. 2005 this clinical trial with application number 04-153 was approved by the Ethics Committee of the Faculty of Medicine of University of Cologne.
# Eighteen patients with a diagnosis of schizophrenia or schizophreniform disorder should be included in this trial per protocol. Because dropouts had to be replaced by a new patient a total number of 29 patients was randomized from February 2006 to June 2008. All randomized patients complied with all inclusion and exclusion criteria: age between 18 and 65, male and female, specific DSM-IV diagnoses, initial BPRS score≥36, no pregnancy or lactation phase, reliable contraception, no lack of accountability, no other relevant interferences, no treatment with depot-antipsychotics during the last three months, no severe internal or neurological illness, no QTc prolongation, no acute suicidality nor endangerment of others by the patient. […] Treatment lasted four weeks: the first period with two weeks of CBD or placebo treatment was followed by a second period with a two-week treatment of placebo or CBD, respectively. There was no washout period between the two treatments. […] The dose could be reduced irreversibly to 400 mg/d in case of serious unwanted effects. […] The PANSS was applied at baseline and day 14 and 28. Dose applications, blood sampling, and assessment of PANSS followed the time schedule presented below. Additional treatment with 5.0 mg lorazepam per day during the whole study period was permitted.
# The Positive and Negative Syndrome Scale (PANSS) is a psychopathological scale and was developed to assess the symptom severity in patients with schizophrenia. It was first described by Kay et al. in 1987 (Kay S R, Fiszbein A, Opler L A. “The positive and negative syndrome scale (PANSS) for schizophrenia”. Schizophrenia bulletin. 1987; 13(2):261-276.) and includes 30 questions which are a combination of 18 items of the BPRS and 12 items of the Psychopathology Rating Schedule ([…]) (see Leucht S, Kane J M, Kissling W, Hamann J, Etschel E, Engel R R. “What does the PANSS mean?” Schizophrenia research. 2005; 79(2-3):231-238.) All questions are rated on a 7-point scale from 1=absence of symptoms to 7=extremely distinct symptoms. Therefore, the PANSS total score (sum score of all 30 items) can range from 30 to 210. Here applies: the lower the PANSS score the better/healthier is the patient.
# The positive scale contains delusion, disorganized thoughts, hallucination, excitement, grandiosity, suspiciousness/persecution, and animosity. Blunted affect, emotional withdrawal, poor rapport, passive/apathetic social withdrawal, difficulty in abstract thinking, stereotyped thinking, lack of spontaneity, and flow of conversation are part of the negative scale. […]
smiles,measurement,setting,value
"C=C(C)[C@@H]1CCC(C)=C[C@H]1c1c(O)cc(CCCCC)cc1O [CBD, cannabidiol]","Estimated CBD plasma concentration, PANSS_N, average","[1]; PANSS delta 10% vs baseline, range (12.9; 28.9)",17.8 µg/L
same,"Estimated CBD plasma concentration, PANSS_P, average","[1]; PANSS delta 10% vs baseline, range (13.0; 35.7)",19.1 µg/L
same,"Estimated CBD plasma concentration, PANSS_T, average","[1]; PANSS delta 10% vs baseline, range (13.4; 25.5)",17.5 µg/L
same,"Estimated CBD plasma concentration, PANSS_N, average","[1]; PANSS delta 20% vs baseline, range (25.7; 57.7)",35.6 µg/L
same,"Estimated CBD plasma concentration, PANSS_P, average","[1]; PANSS delta 20% vs baseline, range (26.0; 71.4)",38.2 µg/L
same,"Estimated CBD plasma concentration, PANSS_G, average","[1]; PANSS delta 20% vs baseline, range (26.6; 49.2)",34.5 µg/L
same,"Estimated CBD plasma concentration, PANSS_T, average","[1]; PANSS delta 20% vs baseline, range (26.7; 50.9)",35.0 µg/L
same,"Estimated CBD plasma concentration, PANSS_N, average","[1]; PANSS delta 25% vs baseline, range (32.2; 72.1)",44.5 µg/L
same,"Estimated CBD plasma concentration, PANSS_P, average","[1]; PANSS delta 25% vs baseline, range (32.5; 89.3)",47.7 µg/L
same,"Estimated CBD plasma concentration, PANSS_G, average","[1]; PANSS delta 25% vs baseline, range (33.2; 61.5)",43.1 µg/L
same,"Estimated CBD plasma concentration, PANSS_T, average","[1]; PANSS delta 25% vs baseline, range (33.4; 63.7)",43.8 µg/L
same,"Estimated CBD plasma concentration, PANSS_N, average","[1]; PANSS delta 30% vs baseline, range (38.6; 86.6)",53.4 µg/L
same,"Estimated CBD plasma concentration, PANSS_P, average","[1]; PANSS delta 30% vs baseline, range (39.1; 107.1)",57.2 µg/L
same,"Estimated CBD plasma concentration, PANSS_G, average","[1]; PANSS delta 30% vs baseline, range (39.8; 73.8)",51.8 µg/L
same,"Estimated CBD plasma concentration, PANSS_T, average","[1]; PANSS delta 30% vs baseline, range (40.1; 76.4)",52.6 µg/L
same,"Estimated CBD plasma concentration, PANSS_N, average","[1]; PANSS delta 40% vs baseline, range (51.5; 115.4)",71.2 µg/L
same,"Estimated CBD plasma concentration, PANSS_P, average","[1]; PANSS delta 40% vs baseline, range (52.1; 142.8)",76.3 µg/L
same,"Estimated CBD plasma concentration, PANSS_G, average","[1]; PANSS delta 40% vs baseline, range (53.1; 98.4)",69.0 µg/L
same,"Estimated CBD plasma concentration, PANSS_T, average","[1]; PANSS delta 40% vs baseline, range (53.4; 101.9)",70.1 µg/L
same,"Estimated CBD plasma concentration, PANSS_N, average","[1]; PANSS delta 50% vs baseline, range (64.3; 144.3)",89.0 µg/L
same,"Estimated CBD plasma concentration, PANSS_P, average","[1]; PANSS delta 50% vs baseline, range (65.1; 178.5)",95.4 µg/L
same,"Estimated CBD plasma concentration, PANSS_G, average","[1]; PANSS delta 50% vs baseline, range (66.4; 123.0)",86.3 µg/L
same,"Estimated CBD plasma concentration, PANSS_T, average","[1]; PANSS delta 50% vs baseline, range (66.8; 127.3)",87.6 µg/L
same,"Estimated CBD plasma concentration, PANSS_P, average","[1]; PANSS delta 60% vs baseline, range (78.1; 214.2)",114.5 µg/L
same,"Estimated CBD plasma concentration, PANSS_G, average","[1]; PANSS delta 60% vs baseline, range (79.7; 147.6)",103.5 µg/L
same,"Estimated CBD plasma concentration, PANSS_T, average","[1]; PANSS delta 60% vs baseline, range (80.1; 152.8)",105.1 µg/L
same,"Estimated CBD plasma concentration, PANSS_N, average","[1]; PANSS delta 70% vs baseline, range (90.1; 202.0)",124.6 µg/L
same,"Estimated CBD plasma concentration, PANSS_P, average","[1]; PANSS delta 70% vs baseline, range (91.1; 249.9)",133.6 µg/L
same,"Estimated CBD plasma concentration, PANSS_G, average","[1]; PANSS delta 70% vs baseline, range (93.0; 172.2)",120.8 µg/L
same,"Estimated CBD plasma concentration, PANSS_T, average","[1]; PANSS delta 70% vs baseline, range (93.5; 178.3)",122.6 µg/L
same,"Estimated CBD plasma concentration, PANSS_N, average","[1]; PANSS delta 75% vs baseline, range (96.5; 216.4)",133.5 µg/L
same,"Estimated CBD plasma concentration, PANSS_P, average","[1]; PANSS delta 75% vs baseline, range (97.6; 267.8)",143.1 µg/L
same,"Estimated CBD plasma concentration, PANSS_G, average","[1]; PANSS delta 75% vs baseline, range (99.6; 184.5)",129.4 µg/L
same,"Estimated CBD plasma concentration, PANSS_T, average","[1]; PANSS delta 75% vs baseline, range (100.1; 191.0)",131.4 µg/L
same,"Estimated CBD plasma concentration, PANSS_N, average","[1]; PANSS delta 80% vs baseline, range (102.9; 230.8)",142.4 µg/L
same,"Estimated CBD plasma concentration, PANSS_P, average","[1]; PANSS delta 80% vs baseline, range (104.1; 285.6)",152.6 µg/L
same,"Estimated CBD plasma concentration, PANSS_G, average","[1]; PANSS delta 80% vs baseline, range (106.3; 196.8)",138.0 µg/L
same,"Estimated CBD plasma concentration, PANSS_T, average","[1]; PANSS delta 80% vs baseline, range ([…]; 203.7)",140.2 µg/L
same,"Estimated CBD plasma concentration, PANSS_N, average","[1]; PANSS delta 90% vs baseline, range (115.8; 259.7)",160.2 µg/L
same,"Estimated CBD plasma concentration, PANSS_P, average","[1]; PANSS delta 90% vs baseline, range (117.2; 321.3)",171.7 µg/L
same,"Estimated CBD plasma concentration, PANSS_G, average","[1]; PANSS delta 90% vs baseline, range (119.5; 221.4)",155.3 µg/L
same,"Estimated CBD plasma concentration, PANSS_T, average","[1]; PANSS delta 90% vs baseline, range (120.2; 229.2)",157.7 µg/L
same,"Estimated CBD plasma concentration, PANSS_N, average","[1]; PANSS delta 100% vs baseline, range (128.7; 288.5)",178.0 µg/L
same,"Estimated CBD plasma concentration, PANSS_P, average","[1]; PANSS delta 100% vs baseline, range (130.2; 357.0)",190.8 µg/L
same,"Estimated CBD plasma concentration, PANSS_G, average","[1]; PANSS delta 100% vs baseline, range (132.8; 246.0)",172.5 µg/L
same,"Estimated CBD plasma concentration, PANSS_T, average","[1]; PANSS delta 100% vs baseline, range (133.5; 254.6)",175.2 µg/L
same,CBD plasma concentration that results in the required percentage change (25%) of the PANSS score(s),[1]; after 2 weeks of treatment,at least 25 μg/l
same,PANSS Positive Score,"[2]; Day 14, mean, SD 4.5, N 36",18.9
same,PANSS Negative Score,"[2]; Day 14, mean, SD 5.6, N 36",19.0
same,PANSS General Score,"[2]; Day 14, mean, SD 9.6, N 36",38.9
same,PANSS Total Score,"[2]; Day 14, mean, SD 17.0, N 36 (CT1 17|PT 19), oral CBD capsules 800 mg/d (CT1) or 600 mg/d (PT)",76.9
same,PANSS Positive Score,"[2]; Day 28, mean, SD 5.4, N 24",16.9
same,PANSS Negative Score,"[2]; Day 28, mean, SD 6.2, N 24",16.1
same,PANSS General Score,"[2]; Day 28, mean, SD 13.1, N 24",35.9
same,PANSS Total Score,"[2]; Day 28, mean, SD 23.2, N 24 (CT1 14|PT 10)",68.9

# From patent US20240192237A1 (curantis UG, priority 2021, published 2024)
